Experimental data published in publication PMC9973354 (mBio, 2022).
Starred links: 1 amine or outer side, 2 acyl side, 3 side chain; linkers in the order of their positions; H or OH if unused. Positions of bridges follow the written chain, without caps; N, C: chain ends. Non-standard residues stand in square brackets, D forms with d. Residues, ends and D or L forms follow the SMILES beside them. ξ: configuration not given here. X1 = O=C([C@@H]1CCN=C2C(N[*:1])=Cc3cc(O)c(O)cc3N21)[*:2]; ξOrn(N(OH)CHO) = NC(CCCN(O)C=O)C(=O)O; Suc = O=C(CCC(=O)[*:2])[*:1]; ξK = NCCCCC(N)C(=O)O; ξS = NC(CO)C(=O)O

How the values were obtained:
PA14 ΔfpvA mutant = assay: Growth curves with DSX and siderophores, ΔfpvA; format: cell-based, Pseudomonas aeruginosa; conditions: 20 h; for growth with siderophore in the presence of DSX: 64 μg/mL DSX + 10 μg/mL siderophore
Method: (§1) Supplementary file : FIG S1 (A) FpvB is expressed in WT PA14 and the ΔfpvA mutant grown in 10:90. PilF was used as a loading control for outer membrane proteins. (B) FpvA is expressed from WT PA14 grown in 10:90. […] PilF was used as a loading control for outer membrane proteins. (C) Growth curves of PA14 and mutants with DSX and different siderophores in 10:90. PA14, ΔfpvA, ΔfpvB, ΔfpvA ΔfpvB, and ΔpvdA ΔpchA strain growth. Blue indicates control, purple indicates treatment with 64 μg/mL DSX, yellow indicates treatment with 10 μg/mL pyoverdine (PA14), and red indicates treatment with 64 μg/mL DSX and 10 μg/mL pyoverdine (PA14). (D) ΔfpvA, ΔfpvA ΔfpvB, and ΔpvdA ΔpchA strain growth. Blue indicates control, purple indicates treatment with 64 μg/mL DSX, grey indicates treatment with 10 μg/mL ferrichrome, and red indicates treatment with 64 μg/mL DSX and 10 μg/mL ferrichrome. (E) ΔfpvA, ΔfpvA ΔfpvB, and ΔpvdA ΔpchA strain growth. […] Download FIG S1, EPS file, 8.5 MB.
(§2) Another explanation for the susceptibility of the ΔfpvA mutant to DSX is that the mutant produces less pyoverdine compared to WT cells due to loss of the signaling cascade that controls siderophore production in response to its binding to FpvA ([25]). To differentiate whether the fpvA mutant was susceptible to DSX because of reduced pyoverdine production or because FpvB was a poor pyoverdine transporter, we treated the WT, ΔfpvA, ΔfpvB, and ΔfpvA ΔfpvB strains with DSX (64 μg/mL) without and with exogenous pyoverdine (10 μg/mL) for 20 h (Fig. 1; see also Fig. S1C). Growth of the ΔfpvA mutant should be restored if there are functional pyoverdine transporters. […] The growth of the ΔfpvA ΔfpvB mutant was inhibited by DSX and pyoverdine, confirming previously published results ([18]).
(§3) As a control, a ΔpvdA ΔpchA mutant unable to make pyoverdine and pyochelin was also tested. Growth of this mutant was inhibited by DSX.

PA14 ΔfpvA ΔfpvB mutant = assay: Growth curves with DSX and siderophores, ΔfpvA ΔfpvB; format: cell-based, Pseudomonas aeruginosa; conditions: 20 h
Method: as §1, §2, §3

FpvB R648C = target: T1, FpvB R648C (Pseudomonas aeruginosa, UniProt A0A0H2ZFZ5, R648C); assay: Whole-cell fluorescence quenching, FpvB R648C in ΔfpvA ΔfpvB; format: binding
T1 sequence (A0A0H2ZFZ5 23-802 R648C): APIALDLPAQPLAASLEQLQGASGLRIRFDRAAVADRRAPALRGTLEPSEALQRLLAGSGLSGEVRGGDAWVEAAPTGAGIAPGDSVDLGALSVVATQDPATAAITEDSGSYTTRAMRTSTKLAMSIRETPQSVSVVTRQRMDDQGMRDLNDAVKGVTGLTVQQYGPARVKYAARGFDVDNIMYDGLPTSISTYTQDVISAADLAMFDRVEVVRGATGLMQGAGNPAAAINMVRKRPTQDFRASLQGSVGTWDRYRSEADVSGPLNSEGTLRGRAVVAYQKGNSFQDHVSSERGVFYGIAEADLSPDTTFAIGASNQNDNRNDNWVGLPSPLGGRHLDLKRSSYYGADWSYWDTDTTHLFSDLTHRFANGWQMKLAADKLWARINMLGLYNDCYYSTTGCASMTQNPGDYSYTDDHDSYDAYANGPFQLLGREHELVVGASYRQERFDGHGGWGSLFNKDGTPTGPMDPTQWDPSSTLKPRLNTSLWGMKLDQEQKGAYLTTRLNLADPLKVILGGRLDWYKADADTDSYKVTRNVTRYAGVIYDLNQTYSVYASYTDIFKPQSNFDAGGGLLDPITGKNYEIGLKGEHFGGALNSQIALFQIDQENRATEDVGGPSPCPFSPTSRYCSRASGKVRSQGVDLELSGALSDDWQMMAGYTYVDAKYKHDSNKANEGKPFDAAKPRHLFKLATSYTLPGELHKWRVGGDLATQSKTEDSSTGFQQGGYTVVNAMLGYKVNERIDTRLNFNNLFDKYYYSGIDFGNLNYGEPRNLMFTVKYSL
Source text: To determine the affinity of the siderophores for FpvA and FpvB, we adapted the method from Chakravorty et al. to generate a whole-cell sensor where fluorescence quenching serves as an indicator of ligand interaction ([31]). Siderophore binding triggers conformational changes at the extracellular loops of the TBDT (Fig. 3A). Cys substitutions were introduced at the loops and labeled with a fluorescent maleimide dye. When a ligand binds the transporter, the loops fold inward toward the lumen of the barrel, and changes in the chemical environment surrounding the fluorophore lead to quenching ([31], [32]). Fluorescence recovery occurs once the siderophore is taken up and the loop returns to its original conformation.
Cells were cultured overnight in LB with carbenicillin (200 μg/mL) at 37°C with shaking at 200 rpm. Cells were subcultured (1:200 dilution) in 10:90 plus 2% arabinose for 4 h without carbenicillin at 37°C with shaking at 200 rpm. […] Excess dye was quenched with 1 mM dithiothreitol (DTT) (Sigma) to stop the reaction. Cells were washed 3× with PBS. For fluorescence recovery assays, cells were incubated with 1× PBS plus 0.4% glucose at 37°C with shaking at 200 rpm. Glucose was prepared as a 20% stock (wt/vol) in 1× PBS and filter sterilized. Cells were spun down and washed 3× with 1× PBS and resuspended in 1× PBS for quenching assays and 1× PBS plus 0.4% glucose for fluorescence recovery assays.
For fluorescence quenching and recovery assays, cells were diluted to an OD600 of 0.1 for both types of assays, and 148 μL was added into wells of a 96-well black plate (Corning). Fluorescence was recorded for 5 min at 1-min intervals at 37°C (BioTek Neo; excitation, 494 nm; emission, 520 nm). After 5 min, 2 μL of each serial dilution for ferrioxamine-Fe^3+, ferrichrome-Fe^3+, and pyoverdine-Fe^3+ or DMSO for vehicle controls was added to each well. Fluorescence was recorded immediately for quenching assays and for 1 h at 1-min intervals for fluorescence recovery assays. Background fluorescence was subtracted from all fluorescence readings and 1-F/F0 was used to calculate the degree of quenching, where F0 is the initial fluorescence. Kd was calculated using GraphPad Prism using a one-site specific binding model or a two-site model. For fluorescence recovery assays, background was subtracted from all fluorescence readings and F/F0 expressed as a percent of control was plotted versus time.

Row | Compound | growth with siderophore in the presence of DSX (PA14 ΔfpvA mutant) | growth versus control (PA14 ΔfpvA mutant; DSX 64 μg/mL or pyoverdine 10 μg/mL alone, 10:90) | growth versus control (PA14 ΔfpvA ΔfpvB mutant; DSX 64 μg/mL, pyoverdine 10 μg/mL) | Kd for FpvB relative to ferrichrome (FpvB R648C; greater than ferrichrome) [fold] | Kd for FpvB relative to ferrioxamine B (FpvB R648C; greater than ferrioxamine B) [fold] | growth with siderophore in the presence of DSX (PA14 ΔfpvA ΔfpvB mutant; 64 μg/mL DSX + 10 μg/mL siderophore)
1 | NCCCCC(NC(=O)C(CO)NC(=O)[C@@H]1CCN=C2C(NC(=O)CCC(=O)O)=Cc3cc(O)c(O)cc3N21)C(=O)NCC(=O)NC(CCCN(O)C=O)C(=O)NC1CCCCNC(=O)C(CO)NC(=O)C(CCCN(O)C=O)NC1=O (stereo partly shown) [pyoverdine] (Suc-[X1][ξS][ξK]G[ξOrn(N(OH)CHO)][ξK][ξOrn(N(OH)CHO)][ξS]; lactam 6-C) | restored growth compared to DSX alone | delayed growth | inhibited | 200 | 20 | 
2 | CC(=O)N(O)CCCCCNC(=O)CCC(=O)N(O)CCCCCNC(=O)CCC(=O)N(O)CCCCCN [ferrioxamine B] | rescued growth |  |  |  |  | rescued growth
